{"source": "patent US10501752B2", "about": "“Herbicide tolerant cotton event pDAB4468.19.10.3” (Dow AgroSciences LLC, priority 2012, dated 2019)", "key": {"non-transformed cotton": {"tested_on": "non-transformed cotton", "settings": "rates much lower than the lowest rate tested (1120 g ae/ha); known; cited from earlier work"}, "[1]": {"tested_on": "cotton event pDAB4468.19.10.3", "assay": "Tolerance to 2,4-D in field trials (percent visual injury)", "format": "in vivo, Gossypium hirsutum", "settings": "for Percent visual injury: single post-emergence application, 2-4 leaf", "protocol": "The tolerance of cotton event pDAB4468.19.10.3 to post-emergence applications of the phenoxyacetic acid herbicide, 2,4-D, was studied in field trials during the 2010 growing season. Herbicide tolerance was assessed following a single post-emergence application of 2,4-D applied to 2-4 leaf cotton event pDAB4468.19.10.3. The application of 2,4-D on cotton plants at this stage of development represents a herbicide application timing typically utilized to achieve satisfactory weed control by cotton growers.\n2,4-D tolerance was measured by assessing cotton plants for injury at 0-1 day after application (DAA), 7-8 DAA, 12-16 DAA, and 24-32 DAA. Measurements for the 0-1 day time increment were taken from 6-24 hours after the application. Injury was assessed by assigning a percent visual injury rating using a linear percentage scale (1-100%) where 0% represents no visible herbicide injury and 100% represents plant death. The ratings were a composite score for any herbicide symptomology including epinasty, chlorosis, leaf necrosis and plant death. Herbicide symptomology present at 0-1 DAA was primarily epinasty and symptoms at later evaluations were primarily chlorosis and necrosis.\n(§1) Field trials were conducted at eleven locations across the United States in typical cotton producing areas of Alabama, Arkansas, California, Georgia, Louisiana, Mississippi, North Carolina, South Carolina, and Tennessee. Trials were designed with four replications per treatment. Each replication was separated by a bare-soil alley 10-15 feet wide. Plot size for individual treatments was 2 rows by 20 feet long with rows typically spaced 36-40 inches apart. Experimental treatments consisted of cotton event pDAB4468.19.10.3 sprayed with 2,4-D amine (Weedar 64™, NuFarm, Burr Ridge, Ill.) at either 0, 1120, 2240, or 4480 grams acid equivalent per hectare (g ae/ha) applied in 15 gallons per acre of final spray solution. A non-transformed cotton comparator treatment was not included in these experiments since treatment with 2,4-D at rates much lower than the lowest rate tested (1120 g ae/ha) are known to result in plant death."}, "[2]": {"tested_on": "cotton event pDAB4468.19.10.3", "assay": "Agronomic characterization in field trials with and without herbicide applications", "format": "in vivo, Gossypium hirsutum", "settings": "sprayed vs unsprayed event plants; standard field application rates", "from_the_text": "The agronomic characteristics of cotton event pDAB4468.19.10.3 were quantified in field trials conducted across geographically different locations throughout the cotton belt in 2010. These studies compared the agronomic performance of cotton event pDAB4468.19.10.3 (with and without applications of the herbicides 2,4-D and glufosinate) to the non-transgenic near-isoline control, Coker 310. No agronomically meaningful unintended differences were observed between cotton event pDAB4468.19.10.3 and the Coker 310 control plants. […] Additionally, the agronomic performance of cotton event pDAB4468.19.10.3 was not altered as a result of the application of the herbicides, 2,4-D and glufosinate, as compared to the cotton event pDAB4468.19.10.3 plants which were not sprayed with the herbicide treatments. […]\nSeeds of cotton event pDAB4468.19.10.3 and seeds of the near-isoline control line, Coker 310, were planted at a rate of 80 seeds per 20 ft row with a row spacing of 34-38 inches (86.36 cm-96.52 cm). […] The measured agronomic characteristics were equivalent for cotton event pDAB4468.19.10.3 as compared to the Coker 310 near-isoline control plants for all of the agronomic characteristics measured and statistically analyzed. […]"}, "[3]": {"tested_on": "cotton event pDAB4468.19.10.3", "assay": "Tolerance to glufosinate in field trials (percent visual injury)", "format": "in vivo, Gossypium hirsutum", "settings": "for Percent visual injury: single post-emergence application, 6-8 leaf", "protocol": "The tolerance of cotton event pDAB4468.19.10.3 to post-emergence applications of glufosinate was studied in field trials during the 2010 growing season. Herbicide tolerance was assessed following a single post-emergence application of glufosinate applied to 6-8 leaf cotton event pDAB4468.19.10.3, which represents a herbicide application timing typically utilized with glufosinate to achieve satisfactory weed control.\nGlufosinate tolerance was measured by assessing cotton plants for injury at 2-4 days after application (DAA), 7-9 DAA, 13-19 DAA and 22-29 DAA. Injury was assessed by assigning a percent visual injury rating using a linear percentage scale (1-100) where 0% represents no visible herbicide injury and 100% represents plant death. The ratings were a composite score for any herbicide symptomology including chlorosis, leaf necrosis, stunting and plant death. Herbicide symptomology (where present) was primarily chlorosis and necrosis.\nas §1, with “glufosinate ammonium (Ignite 280 SL™, Bayer, Research Triangle, N.C.)” for “2,4-D amine (Weedar 64™, NuFarm, Burr Ridge, Ill.)”, “542, 1084,” for “1120, 2240,”, “2168” for “4480”, “glufosinate” for “2,4-D”, “(542” for “(1120”, “would be expected” for “are known”"}}}
{"compound": "O=C(O)COc1ccc(Cl)cc1Cl", "note": "[2,4-D]", "values": [{"measurement": "result of treatment of non-transformed cotton", "setting": "non-transformed cotton", "result": "plant death"}, {"measurement": "herbicide injury noted in the field experiments", "setting": "[1]; 1120-4480 g ae/ha, with the exception of transient epinasty 0-1 DAA", "result": "no agronomically-significant herbicide injury"}, {"measurement": "Percent visual injury", "setting": "[1]; 1120 g ae/ha, 0-1 DAA", "result": 3.6, "unit": "%"}, {"measurement": "Percent visual injury", "setting": "[1]; 1120 g ae/ha, 7-8 DAA", "result": 1.4, "unit": "%"}, {"measurement": "Percent visual injury", "setting": "[1]; 1120 g ae/ha, 12-16 DAA", "result": 0.6, "unit": "%"}, {"measurement": "Percent visual injury", "setting": "[1]; 1120 g ae/ha, 24-32 DAA", "result": 0.0, "unit": "%"}, {"measurement": "Percent visual injury", "setting": "[1]; 2240 g ae/ha, 0-1 DAA", "result": 11.8, "unit": "%"}, {"measurement": "Percent visual injury", "setting": "[1]; 2240 g ae/ha, 7-8 DAA", "result": 3.5, "unit": "%"}, {"measurement": "Percent visual injury", "setting": "[1]; 2240 g ae/ha, 12-16 DAA", "result": 2.7, "unit": "%"}, {"measurement": "Percent visual injury", "setting": "[1]; 2240 g ae/ha, 24-32 DAA", "result": 0.1, "unit": "%"}, {"measurement": "crop injury beyond the 7-8 DAA evaluation interval", "setting": "[1]; 4480 g ae/ha (>4x rate required for weed control)", "result": "little crop injury"}, {"measurement": "Percent visual injury", "setting": "[1]; 4480 g ae/ha, 0-1 DAA", "result": 19.4, "unit": "%"}, {"measurement": "Percent visual injury", "setting": "[1]; 4480 g ae/ha, 7-8 DAA", "result": 11.0, "unit": "%"}, {"measurement": "Percent visual injury", "setting": "[1]; 4480 g ae/ha, 12-16 DAA", "result": 5.9, "unit": "%"}, {"measurement": "Percent visual injury", "setting": "[1]; 4480 g ae/ha, 24-32 DAA", "result": 0.6, "unit": "%"}, {"measurement": "agronomic performance of the event as a result of herbicide application", "setting": "[2]", "result": "not altered"}]}
{"compound": "CP(=O)(O)CCC(N)C(=O)O", "note": "(stereo not shown) [glufosinate]", "values": [{"measurement": "agronomic performance of the event as a result of herbicide application", "setting": "[2]", "result": "not altered"}, {"measurement": "herbicide injury noted in the field experiments", "setting": "[3]; 542-2168 g ae/ha, with the exception of transient chlorosis at 2168 g ae/ha at 2-4 & 7-9 DAA", "result": "no agronomically significant herbicide injury"}, {"measurement": "Percent visual injury", "setting": "[3]; 542 g ae/ha, 2-4 DAA", "result": 2.7, "unit": "%"}, {"measurement": "Percent visual injury", "setting": "[3]; 542 g ae/ha, 7-9 DAA", "result": 1.9, "unit": "%"}, {"measurement": "Percent visual injury", "setting": "[3]; 542 g ae/ha, 13-19 DAA", "result": 0.1, "unit": "%"}, {"measurement": "Percent visual injury", "setting": "[3]; 542 g ae/ha, 22-29 DAA", "result": 0.0, "unit": "%"}, {"measurement": "Percent visual injury", "setting": "[3]; 1084 g ae/ha, 2-4 DAA", "result": 6.6, "unit": "%"}, {"measurement": "Percent visual injury", "setting": "[3]; 1084 g ae/ha, 7-9 DAA", "result": 4.0, "unit": "%"}, {"measurement": "Percent visual injury", "setting": "[3]; 1084 g ae/ha, 13-19 DAA", "result": 0.2, "unit": "%"}, {"measurement": "Percent visual injury", "setting": "[3]; 1084 g ae/ha, 22-29 DAA", "result": 0.0, "unit": "%"}, {"measurement": "crop injury beyond the 7-9 DAA evaluation interval", "setting": "[3]; 2168 g ae/ha (>4x rate required for weed control)", "result": "little crop injury"}, {"measurement": "Percent visual injury", "setting": "[3]; 2168 g ae/ha, 2-4 DAA", "result": 13.5, "unit": "%"}, {"measurement": "Percent visual injury", "setting": "[3]; 2168 g ae/ha, 7-9 DAA", "result": 10.0, "unit": "%"}, {"measurement": "Percent visual injury", "setting": "[3]; 2168 g ae/ha, 13-19 DAA", "result": 2.3, "unit": "%"}, {"measurement": "Percent visual injury", "setting": "[3]; 2168 g ae/ha, 22-29 DAA", "result": 0.3, "unit": "%"}]}
